Assay results from publication PMC6669608, “Evaluation of Oxasqualenoids from the Red Alga Laurencia viridis against Acanthamoeba” (Marine Drugs, 2019).

Key:
[1] = system: Acanthamoeba castellanii Neff cysts; assay: In vitro activity against Acanthamoeba castellanii Neff cysts (alamarBlue); type: cell-based; conditions: 168 h, mature cysts, 7 d incubation, read-out: IC50, cysticidal activity against A. castellanii Neff
Description: The cysticidal activity of DT was determined by the alamarBlue™ assay and confirmed visually by inverted microscopy. Cysts of A. castellanii Neff were prepared as previously described. Briefly, trophozoites were transferred from PYG medium based cultures (trophozoite medium) to Neff’s encystment medium (NEM; 0.1 M KCl, 8 mM MgSO4·7H2O, 0.4 mM CaCl2·2H2O, 1 mM NaHCO3, 20 mM ammediol (2-amino-2-methyl-1,3-propanediol; Sigma Aldrich, Madrid, Spain), pH 8.8 at 25 °C) and were cultured in this medium with gentle shaking for a week in order to obtain mature cysts. After that, mature cysts were harvested and washed twice using PYG medium.
A serial dilution of the tested molecules was made in PYG. The in vitro susceptibility assay was performed in sterile 96-well microtiter plates (Corning™). To these wells, containing 50 µL of drug dilutions, 5 × 10^4 mature cysts of Acanthamoeba/mL were added. After 7 d of incubation with the drugs, the plate was centrifuged at 3000 rpm for 10 min. The supernatant was removed and replaced with 100 µL of fresh PYG medium in each well. Finally, 10 μL of the Alamar Blue Assay Reagent (Biosource, Europe, Nivelles, Belgium) was placed into each well, and the plates were then incubated for 144 h at 28 °C. The emitted fluorescence was periodically examined with an Enspire microplate reader (PerkinElmer, Waltham, MA, USA) at 570/585 nm.

[2] = Cytotoxicity assay (alamarBlue); type: cell-based, murine; conditions: mouse; 24 h, 37 °C; read-out: CC50, toxicity against murine macrophage J774.A1
Description: The antiamoeboid activity of the compounds was evaluated against Acanthamoeba castellanii Neff (ATCC 30010) type strain from the American Type Culture Collection. This strain was axenically incubated in PYG medium (0.75% (w/v) proteose Peptone, 0.75% (w/v) Yeast extract, and 1.5% (w/v) Glucose) supplemented with 10 µg/mL gentamicin (Sigma-Aldrich, Madrid, Spain). As for the cytotoxicity assays, murine macrophages J774A.1 (ATCC TIB-67) were used, cultivated in DMEM medium (Dulbecco’s modified eagle medium, Gibco Life Technologies, California, USA) with 10% supplement of fetal bovine serum (FBS) and 10 µg/mL gentamicin at 37 °C in a 5% CO2 incubator.
The cytotoxicity of the tested compounds was determined in vitro with murine macrophages (J774A.1). For this assay, the DMEM culture medium was changed from RPMI without phenol red (Roswell Park Memorial Institute, Thermo Fisher Scientific Inc., Waltham, MA, USA) to L-Glutamine supplemented with 10% (v/v) inactivated FBS and with 10 µg/mL gentamicin. In this assay, the macrophages were counted and seeded into a 96-well microtiter plate, adding 50 µL to each well from a stock solution of 2 × 10^5 cells/mL. Cells were then left to adhere for 15 min to the plate bottom and were checked with the inverted microscope Leica DMIL. After that, 50 µL of a serial dilution of the compounds was added to the 96-well microtiter plate. Finally, alamarBlue™ was added into each well at an amount equal to 10% of the final volume and incubated at 37 °C in the presence of CO2 at 5% for 24 h. After this period of time, as in the in vitro anti-Acanthamoeba assay, the fluorescence was determined with an EnSpire Multimode Plate Reader (PerkinElmer, Inc, Waltham, MA, USA) at a wavelength of 570/585 nm. The cytotoxicity concentration to inhibit the growth of 50% of murine macrophages (CC50) was calculated through nonlinear regression analysis with 95% confidence limits using the software Sigma Plot 12.0 (Systat Software, Inc, San Jose, CA 95110 USA). Experiments were performed three times each, allowing for standard deviation.

C=C(CC[C@H](O)[C@@]1(C)CC[C@H](C(C)(C)O)O1)[C@H]1CC[C@H]2O[C@@H]([C@]3(C)CC[C@@H](Br)C(C)(C)O3)CC[C@]2(C)O1 [Compound 1, dehydrothyrsiferol] showed an IC50 [1] of 39.27 ± 0.14 µM and a CC50 [2] of 28.8 ± 3.1 µM.
